In patent US12576094B2, “Combination cannabinoid-phenylethanoid formulation for treatment of inflammation and methods related thereto” (Canole LLC, priority 2019, dated 2026):

Key:
[1] = tested on: IL-13 production by chondrocytes (C-28/I2); experiment: cytokine array of conditioned media from IL1β-stimulated chondrocytes: IL-13; type: cell-based, human; settings: Moderate level (2.00 μM) of CBD alone, IL1β 10 ng/ml, 24 hours, no serum, FIG. 2
Source text: Antimicrobials were not added to the media.
Three wells were utilized per sample condition.

C-28/I2 chondrocytes = experiment: toxicity screen to establish maximum tolerable concentrations in chondrocytes
Source text: A clonal derivative of ATCC-certified normal chondrocytes was used for a study to determine cytokine expression. The parent line was originally derived from costal cartilage of an adolescent person. The cell line used is C-28/I2 accession number CVCL_0187. The cells were immortalized via retroviral vector-mediated SV40 Large T antigen expression. Cells were confirmed negative for mycoplasma contamination and genotyped by STR analysis to verify cell identity. This cell line is widely used as a model for studying normal and pathological cartilage repair mechanisms and inflammation.
The cells were cultured at 37° C. with 5% CO2, DMEM/F12 media supplemented with 10% heat-inactivated fetal bovine serum. Antimicrobials were not added to the media. Cells were maintained between 40 and 80% confluency to avoid terminal differentiation. Cells used for the experiments had been passaged no more than ten times prior to each experiment.
A series of pilot studies were performed to design the final full-scale experiment. First, a toxicity screen for each test compound was performed to establish maximum tolerable concentrations in this model system. Second, assays were run to establish the optimal means of inducing a pro-inflammatory state in the cell culture system. Third, conditions were tested to set the most favorable dilution scheme in order to maintain samples within the linear range of detection for each analyte. To establish the test concentrations for each test compound, chondrocytes were treated with a serial dilution of each compound, for 24 and 48 hours under serum free conditions. Oleocanthal or CBD were tested at two-fold dilutions down from a concentration of 50 micromolar (μM).

Structure (SMILES) | generated amount of IL13 [1] | maximum tolerable concentration (C-28/I2 chondrocytes; chondrocytes, 24 hours post-treatment, serum free) [µM] | maximum tolerable concentration (C-28/I2 chondrocytes; human, 24 h) [µM]
C=C(C)[C@@H]1CCC(C)=C[C@H]1c1c(O)cc(CCCCC)cc1O [CBD, cannabidiol] | greatly reduced | 6 | 
C/C=C(/C=O)[C@@H](CC=O)CC(=O)OCCc1ccc(O)cc1 [oleocanthal] |  |  | 6
O=C(O)c1cccnc1 [niacin, niacin/nicotinic acid] |  |  | 1000
